In patent publication US20250025411A1, “READILY SOLUBLE AND THERMOSTABLE GLUCAGON FORMULATIONS AND DELIVERY FOR MINI-DOSING AND CLOSED -LOOP PROPHYLACTIC TREATMENT OF HYPOGLYCEMIA” (Massachusetts Institute of Technology, priority 2023, published 2025):

Assays:
[1] = Dissolution kinetics of solid glucagon tablets; assay type: physicochemical; conditions: pH 7.4 PBS, 37° C.
Source text: Many of the top hits in the excipient screening (e.g., benzoic acid and sodium carbonate) promote glucagon dissolution by altering solution pH. Unlike many other successful excipients, the zwitterionic compound MSB can enhance glucagon dissolution in PBS without altering solution pH.
The excipients were cryo-milled and sieved to a particle size of 63-120 μm (230-120 mesh) before being combined with lyophilized glucagon powder. Solid glucagon formulations were manufactured by tablet compaction of the drug-excipient mixture (1 mm diameter die, 400 N compaction force) using an RD10A Natoli Tablet press. Magnesium stearate, a common lubricant used in tableting, was excluded from this process. The solid formulations were stored at 4° C. until use.
The dissolution kinetics of the solid formulations were assessed by incubating the solid glucagon formulations in 2 mL of pH 7.4 PBS, stored at 37° C. on an orbital shaker. At predetermined timepoints, 200 μL of supernatant was removed for HPLC analysis and an equivalent volume of release medium was replaced. The samples were diluted with equal parts of acetonitrile and analyzed using RP-HPLC.

[2] = High throughput screening of water-soluble solid excipients for glucagon dissolution; assay type: physicochemical; conditions: for Fold change vs. PBS Avg.: 30-minute incubation in pH 7.4 PBS containing 1 mg/mL excipient; for Fold change vs. PBS Avg. / Glucagon concentration Avg.: 37° C.; for Glucagon concentration Avg.: solubilized glucagon after 30-minute incubation of lyophilized glucagon in pH 7.4 PBS containing 1 mg/mL excipient; for enhancement of glucagon dissolution (statistical significance compared to no excipient): 30-minute incubation in pH 7.4 PBS at 37° C.

Row | Molecule | dissolution of solid glucagon formulation in neutral pH buffer [1] | Fold change vs. PBS Avg. [2] [fold] | Glucagon concentration Avg. [2] [mg/mL] | enhancement of glucagon dissolution (statistical significance compared to no excipient) [2]
1 | glucagon [unformulated glucagon] | remained largely insoluble | – | – | –
2 | Betadex Sulfobutyl Ether Sodium | – | 1.56 | 0.34 | –
3 | CC(C)[C@H](N)C(=O)O [Valine] | – | 1.89 | 0.41 | –
4 | O.O=C[C@H](O)[C@@H](O)[C@H](O)[C@H](O)CO [Dextrose Monohydrate] | – | 1.09 | 0.24 | –
5 | O=S(=O)(O)CC(O)CN(CCO)CCO (stereo not drawn) [DIPSO] | – | 1.28 | 0.28 | –
6 | OC[C@H]1O[C@@H]2O[C@H]3[C@H](O)[C@@H](O)[C@@H](O[C@H]4[C@H](O)[C@@H](O)[C@@H](O[C@H]5[C@H](O)[C@@H](O)[C@@H](O[C@H]6[C@H](O)[C@@H](O)[C@@H](O[C@H]7[C@H](O)[C@@H](O)[C@@H](O[C@H]1[C@H](O)[C@H]2O)O[C@@H]7CO)O[C@@H]6CO)O[C@@H]5CO)O[C@@H]4CO)O[C@@H]3CO [Alpha cyclodextrin] | – | 0.55 | 0.12 | –
7 | O=S(=O)(O)CCNC(CO)(CO)CO [TES] | – | 1.75 | 0.38 | –
8 | CCCCCCCC[N+](C)(C)CCCS(=O)(=O)[O-] [Octyl sulfobetaine] | – | 1.15 | 0.25 | –
9 | N[C@@H](CS)C(=O)O [L-Cysteine] | – | 0.60 | 0.13 | –
10 | OC[C@H]1O[C@@H]2O[C@H]3[C@H](O)[C@@H](O)[C@@H](O[C@H]4[C@H](O)[C@@H](O)[C@@H](O[C@H]5[C@H](O)[C@@H](O)[C@@H](O[C@H]6[C@H](O)[C@@H](O)[C@@H](O[C@H]7[C@H](O)[C@@H](O)[C@@H](O[C@H]8[C@H](O)[C@@H](O)[C@@H](O[C@H]1[C@H](O)[C@H]2O)O[C@@H]8CO)O[C@@H]7CO)O[C@@H]6CO)O[C@@H]5CO)O[C@@H]4CO)O[C@@H]3CO [B-Cyclodextrin] | – | 1.40 | 0.30 | –
11 | O=S(=O)(O)CCN1CCN(CCS(=O)(=O)O)CC1 [Piperazine-N,N′-bis(2-ethanesulfonic acid)] | – | 3.70 | 0.80 | successfully enhanced the dissolution of glucagon
12 | O=C1NS(=O)(=O)c2ccccc21.[Na] [Saccharin Sodium] | – | 1.21 | 0.26 | –
13 | NCCS(=O)(=O)O [Taurine] | – | 1.11 | 0.24 | –
14 | O=S([O-])S(=O)(=O)[O-].[K+].[K+] [Potassium Metabisulfite] | – | 2.13 | 0.46 | –
15 | O=S(=O)(O)CC(O)CN1CCOCC1 (stereo not drawn) [MOPSO] | – | 1.37 | 0.29 | –
16 | O=C(O)c1ccccc1 [Benzoic acid] | – | 15.09 | 3.25 | successfully enhanced the dissolution of glucagon
17 | CC(C)C[C@H](N)C(=O)O [L-leucine] | – | 1.32 | 0.28 | –
18 | NC(=O)C[C@H](N)C(=O)O.O [Asparagine monohydrate] | – | 1.55 | 0.33 | –
19 | N[C@@H](Cc1c[nH]c2ccccc12)C(=O)O [L-Tryptophan] | – | 1.54 | 0.33 | –
